# Measurements reported in PubChem BioAssay (NCI).
#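 Test compounds were applied to cells in 96-well plates for 48 hours at 5 doses. GI50 is the concentration that inhibits growth by half. TGI denotes the concentration required for complete inhibition of growth.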
# What was measured:
# Assay in all cases: DTP human tumour cell line panel, 48 h
# SK-MEL-2 melanoma = test system: SK-MEL-2 melanoma
# RPMI-8226 leukemia = test system: RPMI-8226 leukemia
# SNB-19 CNS = test system: SNB-19 CNS
# NCI/ADR-RES ovarian = test system: NCI/ADR-RES ovarian
# HCT-116 colon = test system: HCT-116 colon
# SF-268 CNS = test system: SF-268 CNS
# HT29 colon = test system: HT29 colon
# MOLT-4 leukemia = test system: MOLT-4 leukemia
# MDA-MB-231 breast = test system: MDA-MB-231 breast
# HOP-62 NSCLC = test system: HOP-62 NSCLC
# PC-3 prostate = test system: PC-3 prostate
# A549 NSCLC = test system: A549 NSCLC
# NCI-H23 lung = test system: NCI-H23 lung
# LOX IMVI melanoma = test system: LOX IMVI melanoma
# OVCAR-8 ovarian = test system: OVCAR-8 ovarian
# KM12 colon = test system: KM12 colon
# EKVX NSCLC = test system: EKVX NSCLC
# M14 melanoma = test system: M14 melanoma
# OVCAR-3 ovarian = test system: OVCAR-3 ovarian
# OVCAR-4 ovarian = test system: OVCAR-4 ovarian
# NCI-H522 lung = test system: NCI-H522 lung
# HOP-92 NSCLC = test system: HOP-92 NSCLC
# HCT-15 colon = test system: HCT-15 colon
# SNB-75 CNS = test system: SNB-75 CNS
# DU-145 prostate = test system: DU-145 prostate
# SK-MEL-5 melanoma = test system: SK-MEL-5 melanoma
# NCI-H226 lung = test system: NCI-H226 lung
# SF-539 CNS = test system: SF-539 CNS
# IGROV1 ovarian = test system: IGROV1 ovarian
# HL-60(TB) leukemia = test system: HL-60(TB) leukemia
# MDA-N = test system: MDA-N
# OVCAR-5 ovarian = test system: OVCAR-5 ovarian
# HCC-2998 colon = test system: HCC-2998 colon
# SF-295 CNS = test system: SF-295 CNS
# CCRF-CEM leukemia = test system: CCRF-CEM leukemia
# TK-10 renal = test system: TK-10 renal
# SW-620 colon = test system: SW-620 colon
# A498 renal = test system: A498 renal
# MDA-MB-435 = test system: MDA-MB-435
# UACC-257 melanoma = test system: UACC-257 melanoma
# T-47D breast = test system: T-47D breast
# CAKI-1 renal = test system: CAKI-1 renal
# RXF 393 renal = test system: RXF 393 renal
# 786-0 renal = test system: 786-0 renal
# MALME-3M melanoma = test system: MALME-3M melanoma
# HS 578T breast = test system: HS 578T breast
# NCI-H460 lung = test system: NCI-H460 lung
# MCF7 breast = test system: MCF7 breast
# UO-31 renal = test system: UO-31 renal
# U251 CNS = test system: U251 CNS
# BT-549 breast = test system: BT-549 breast
# SK-MEL-28 melanoma = test system: SK-MEL-28 melanoma
# SK-OV-3 ovarian = test system: SK-OV-3 ovarian
# K-562 leukemia = test system: K-562 leukemia
# COLO 205 colon = test system: COLO 205 colon
# SN12C renal = test system: SN12C renal
# UACC-62 melanoma = test system: UACC-62 melanoma
# SR leukemia = test system: SR leukemia
# ACHN renal = test system: ACHN renal
smiles,measurement,setting,value
CC(=N\N)/C(C)=N/N=C(C)/C(C)=N/N=C(C)/C(C)=N/N=C(C)/C(C)=N/N,TGI,SK-MEL-2 melanoma,> 100 µM
same,TGI,RPMI-8226 leukemia,> 100 µM
same,TGI,SNB-19 CNS,> 100 µM
same,TGI,NCI/ADR-RES ovarian,> 100 µM
same,TGI,HCT-116 colon,> 100 µM
same,TGI,SF-268 CNS,> 100 µM
same,TGI,HT29 colon,> 100 µM
same,TGI,MOLT-4 leukemia,> 100 µM
same,TGI,MDA-MB-231 breast,> 100 µM
same,TGI,HOP-62 NSCLC,> 100 µM
same,TGI,PC-3 prostate,> 100 µM
same,TGI,A549 NSCLC,> 100 µM
same,TGI,NCI-H23 lung,> 100 µM
same,TGI,LOX IMVI melanoma,> 100 µM
same,TGI,OVCAR-8 ovarian,> 100 µM
same,TGI,KM12 colon,> 100 µM
same,TGI,EKVX NSCLC,> 100 µM
same,TGI,M14 melanoma,> 100 µM
same,TGI,OVCAR-3 ovarian,> 100 µM
same,TGI,OVCAR-4 ovarian,> 100 µM
same,TGI,NCI-H522 lung,> 100 µM
same,TGI,HOP-92 NSCLC,> 100 µM
same,TGI,HCT-15 colon,> 100 µM
same,TGI,SNB-75 CNS,> 100 µM
same,TGI,DU-145 prostate,> 100 µM
same,TGI,SK-MEL-5 melanoma,> 100 µM
same,TGI,NCI-H226 lung,> 100 µM
same,TGI,SF-539 CNS,> 100 µM
same,TGI,IGROV1 ovarian,> 100 µM
same,TGI,HL-60(TB) leukemia,> 100 µM
same,TGI,MDA-N,> 100 µM
same,TGI,OVCAR-5 ovarian,> 100 µM
same,TGI,HCC-2998 colon,> 100 µM
same,TGI,SF-295 CNS,> 100 µM
same,TGI,CCRF-CEM leukemia,> 100 µM
same,TGI,TK-10 renal,> 100 µM
same,TGI,SW-620 colon,> 100 µM
same,TGI,A498 renal,> 100 µM
same,TGI,MDA-MB-435,> 100 µM
same,TGI,UACC-257 melanoma,> 100 µM
same,TGI,T-47D breast,> 100 µM
same,TGI,CAKI-1 renal,> 100 µM
same,TGI,RXF 393 renal,> 100 µM
same,TGI,786-0 renal,> 100 µM
same,TGI,MALME-3M melanoma,> 100 µM
same,TGI,HS 578T breast,> 100 µM
same,TGI,NCI-H460 lung,> 100 µM
same,TGI,MCF7 breast,> 100 µM
same,TGI,UO-31 renal,> 100 µM
same,TGI,U251 CNS,> 100 µM
same,TGI,BT-549 breast,> 100 µM
same,TGI,SK-MEL-28 melanoma,> 100 µM
same,TGI,SK-OV-3 ovarian,> 100 µM
same,TGI,K-562 leukemia,> 100 µM
same,TGI,COLO 205 colon,> 100 µM
same,TGI,SN12C renal,> 100 µM
CC1(C#N)N(C(=O)c2ccccc2)c2ccccc2N1C(=O)c1ccccc1,GI50,RPMI-8226 leukemia,39.8 µM
same,GI50,NCI/ADR-RES ovarian,79.7 µM
same,GI50,HCT-116 colon,35.4 µM
same,GI50,HT29 colon,66.4 µM
same,GI50,MOLT-4 leukemia,22.9 µM
same,TGI,MOLT-4 leukemia,71.9 µM
same,GI50,MDA-MB-231 breast,65.3 µM
same,GI50,NCI-H23 lung,64.4 µM
same,GI50,LOX IMVI melanoma,33.6 µM
same,GI50,M14 melanoma,29.3 µM
same,TGI,M14 melanoma,98.4 µM
same,GI50,OVCAR-4 ovarian,57.7 µM
same,GI50,NCI-H522 lung,49.4 µM
same,GI50,HOP-92 NSCLC,52 µM
same,GI50,UACC-62 melanoma,79.7 µM
same,GI50,SR leukemia,45.4 µM
same,GI50,DU-145 prostate,81.8 µM
same,GI50,NCI-H226 lung,91.8 µM
same,GI50,HL-60(TB) leukemia,69.9 µM
same,GI50,MDA-N,79.4 µM
same,GI50,CCRF-CEM leukemia,23.9 µM
same,TGI,CCRF-CEM leukemia,77.9 µM
same,GI50,SW-620 colon,75.9 µM
same,GI50,MDA-MB-435,62.9 µM
same,GI50,UACC-257 melanoma,86.4 µM
same,GI50,T-47D breast,38.7 µM
same,GI50,ACHN renal,72.9 µM
same,GI50,CAKI-1 renal,65 µM
same,GI50,MALME-3M melanoma,44.6 µM
same,GI50,MCF7 breast,37.2 µM
same,GI50,UO-31 renal,45.1 µM
same,GI50,U251 CNS,15.3 µM
same,GI50,K-562 leukemia,33 µM
same,GI50,COLO 205 colon,46.5 µM
CC1(C)N=C(N)N=C(N)N1c1cccc(CCCCc2cccc(S(=O)(=O)F)c2)c1,GI50,SK-MEL-2 melanoma,2.73 µM
same,TGI,SK-MEL-2 melanoma,> 58.5 µM
same,GI50,RPMI-8226 leukemia,2.31 µM
same,TGI,RPMI-8226 leukemia,35.2 µM
same,GI50,SNB-19 CNS,1.53 µM
same,TGI,SNB-19 CNS,> 77.7 µM
same,GI50,NCI/ADR-RES ovarian,> 79.2 µM
same,TGI,NCI/ADR-RES ovarian,> 100 µM
same,GI50,HCT-116 colon,0.445 µM
same,TGI,HCT-116 colon,> 100 µM
same,GI50,SF-268 CNS,0.887 µM
same,TGI,SF-268 CNS,20.8 µM
same,GI50,HT29 colon,0.26 µM
same,TGI,HT29 colon,> 100 µM
same,GI50,MOLT-4 leukemia,3.22 µM
same,TGI,MOLT-4 leukemia,80.7 µM
same,GI50,MDA-MB-231 breast,6.6 µM
same,TGI,MDA-MB-231 breast,> 100 µM
same,GI50,HOP-62 NSCLC,3.04 µM
same,TGI,HOP-62 NSCLC,> 47.9 µM
same,GI50,PC-3 prostate,0.157 µM
same,TGI,PC-3 prostate,> 100 µM
same,GI50,A549 NSCLC,0.751 µM
same,TGI,A549 NSCLC,> 100 µM
same,GI50,NCI-H23 lung,2.39 µM
same,TGI,NCI-H23 lung,> 100 µM
same,GI50,LOX IMVI melanoma,0.424 µM
same,TGI,LOX IMVI melanoma,> 100 µM
same,GI50,OVCAR-8 ovarian,4.84 µM
same,TGI,OVCAR-8 ovarian,> 100 µM
same,GI50,KM12 colon,0.474 µM
same,TGI,KM12 colon,14.2 µM
same,GI50,EKVX NSCLC,19.2 µM
same,TGI,EKVX NSCLC,> 100 µM
same,GI50,M14 melanoma,2.92 µM
same,TGI,M14 melanoma,> 100 µM
same,GI50,OVCAR-3 ovarian,4.29 µM
same,TGI,OVCAR-3 ovarian,27.1 µM
same,GI50,OVCAR-4 ovarian,8.06 µM
same,TGI,OVCAR-4 ovarian,> 100 µM
same,GI50,NCI-H522 lung,2.55 µM
same,TGI,NCI-H522 lung,43.9 µM
same,GI50,HOP-92 NSCLC,5.48 µM
same,TGI,HOP-92 NSCLC,94 µM
same,GI50,HCT-15 colon,14.1 µM
same,TGI,HCT-15 colon,> 100 µM
same,GI50,SNB-75 CNS,0.98 µM
same,TGI,SNB-75 CNS,23.7 µM
same,GI50,UACC-62 melanoma,0.281 µM
same,TGI,UACC-62 melanoma,18 µM
same,GI50,SR leukemia,0.355 µM
same,TGI,SR leukemia,33.2 µM
same,GI50,DU-145 prostate,1.17 µM
same,TGI,DU-145 prostate,> 100 µM
same,GI50,SK-MEL-5 melanoma,0.535 µM
same,TGI,SK-MEL-5 melanoma,14.8 µM
same,GI50,NCI-H226 lung,8.93 µM
same,TGI,NCI-H226 lung,> 100 µM
same,GI50,SF-539 CNS,0.773 µM
same,TGI,SF-539 CNS,18.8 µM
same,GI50,IGROV1 ovarian,0.157 µM
same,TGI,IGROV1 ovarian,> 58.3 µM
same,GI50,HL-60(TB) leukemia,1.95 µM
same,TGI,HL-60(TB) leukemia,47.8 µM
same,TGI,OVCAR-5 ovarian,> 100 µM
same,GI50,HCC-2998 colon,3.17 µM
same,TGI,HCC-2998 colon,> 56.3 µM
same,GI50,SF-295 CNS,2.45 µM
same,TGI,SF-295 CNS,> 100 µM
same,GI50,CCRF-CEM leukemia,0.559 µM
same,TGI,CCRF-CEM leukemia,53.4 µM
same,GI50,TK-10 renal,4.85 µM
same,TGI,TK-10 renal,> 100 µM
same,GI50,SW-620 colon,0.342 µM
same,TGI,SW-620 colon,> 100 µM
same,GI50,A498 renal,7.36 µM
same,TGI,A498 renal,> 100 µM
same,GI50,MDA-MB-435,0.329 µM
same,TGI,MDA-MB-435,29 µM
same,GI50,UACC-257 melanoma,2.79 µM
same,TGI,UACC-257 melanoma,36.6 µM
same,GI50,T-47D breast,12.3 µM
same,TGI,T-47D breast,45.1 µM
same,GI50,ACHN renal,11.8 µM
same,TGI,ACHN renal,> 100 µM
same,GI50,CAKI-1 renal,20.3 µM
same,TGI,CAKI-1 renal,> 100 µM
same,GI50,RXF 393 renal,2.13 µM
same,TGI,RXF 393 renal,> 100 µM
same,GI50,786-0 renal,2.12 µM
same,TGI,786-0 renal,> 100 µM
same,GI50,MALME-3M melanoma,8.47 µM
same,TGI,MALME-3M melanoma,71.8 µM
same,GI50,HS 578T breast,51.1 µM
same,TGI,HS 578T breast,> 100 µM
same,GI50,NCI-H460 lung,0.327 µM
same,TGI,NCI-H460 lung,> 75.7 µM
same,GI50,MCF7 breast,0.485 µM
same,TGI,MCF7 breast,24.9 µM
same,GI50,UO-31 renal,> 100 µM
same,TGI,UO-31 renal,> 100 µM
same,GI50,U251 CNS,0.456 µM
same,TGI,U251 CNS,36 µM
same,GI50,BT-549 breast,0.973 µM
same,TGI,BT-549 breast,> 43.1 µM
same,GI50,SK-MEL-28 melanoma,4.1 µM
same,TGI,SK-MEL-28 melanoma,21.7 µM
same,GI50,SK-OV-3 ovarian,10.9 µM
same,TGI,SK-OV-3 ovarian,> 100 µM
same,GI50,K-562 leukemia,0.657 µM
same,TGI,K-562 leukemia,> 100 µM
same,GI50,COLO 205 colon,1.53 µM
same,TGI,COLO 205 colon,> 100 µM
same,GI50,SN12C renal,0.571 µM
same,TGI,SN12C renal,> 100 µM
